7 compounds from ChEMBL document CHEMBL1127176, “Restricted rotation analogs of S-adenosylmethionine: synthesis, evaluation as inhibitors of S-adenosylmethionine decarboxylase, and potential use as selective antitrypanosomal agents” (Bioorg Med Chem Lett, 1993) can be followed below.

For orientation: Inhibition means the share of the control response that was lost under treatment. Broadly, the IC50 is the concentration that gives 50% inhibition.

The subject of one experiment is Trypanosoma brucei. Briefly: Tested for antitrypanosomal activity against blood forms of Trypanosoma uM concentration. In kind it is functional.
The subject of the next experiment is HL-60. As to the kind of experiment: Tested for the ability to traverse cell membranes and to alter ratio of AdoMet to S-adenosyl-homocysteine (AdoHcy) in HL60 human promyelocytic leukemia cells. It counts as functional, cell-based.
The next experiment deals with L1210. Briefly: Tested for the ability to traverse cell membranes and to alter ratio of AdoMet to S-adenosyl-homocysteine (AdoHcy) in L1210 murine lymphocytic leukemia cells; IA means inactive. In kind it is functional, cell-based, Mus musculus.
In another experiment the test system is HT-29. Briefly: Tested for the ability to traverse cell membranes and to alter ratio of AdoMet to S-adenosyl-homocysteine (AdoHcy) in HT-29 human colon carcinoma; IA means inactive. It counts as functional, cell-based.

For the compound `Nc1ncnc2c1ncn2[C@@H]1O[C@H](CS[C@H]2CN[C@H](C(=O)O)C2)[C@@H](O)[C@H]1O.O=S(=O)(O)O`, the Inhibition in the experiment with Trypanosoma brucei is recorded as 41%. In addition, the IC50 in the experiment with HL-60 is over 1000 µM.
With `C[S+](C[C@H]1O[C@@H](n2cnc3c(N)ncnc32)[C@H](O)[C@@H]1O)C1C=C[C@H](N)C1.O=S(=O)(O)O.O=S(=O)([O-])O` (stereo partly drawn), the Inhibition in the experiment with Trypanosoma brucei turned out to be 50%. Moreover, the IC50 result in the experiment on L1210 and with HT-29 was “Not Active” throughout.
In the experiment with Trypanosoma brucei, `Nc1ncnc2c1ncn2[C@@H]1O[C@H](CSC2CCNC2)[C@@H](O)[C@H]1O.O=S(=O)(O)O` (stereo partly drawn) displayed an Inhibition of 40%.
The compound `C[S+](C[C@H]1O[C@@H](n2cnc3c(N)ncnc32)[C@H](O)[C@@H]1O)C1CCNC1.O=S(=O)(O)O.O=S(=O)([O-])O` (stereo partly drawn) returned an Inhibition with Trypanosoma brucei of 49%.
Compound `C[S+](C[C@H]1O[C@@H](n2cnc3c(N)ncnc32)[C@H](O)[C@@H]1O)C1CN[C@H](C(=O)O)C1.O=S(=O)(O)O.O=S(=O)([O-])O` (stereo partly drawn) displayed an Inhibition in the experiment on Trypanosoma brucei of 64%. Also, the IC50 in the experiment with HL-60 was over 1000 µM.
In turn, `Nc1ncnc2c1ncn2[C@@H]1O[C@H](CS[C@@H]2CN[C@H](C(=O)O)C2)[C@@H](O)[C@H]1O.O=S(=O)(O)O` showed an Inhibition in the experiment on Trypanosoma brucei of 30%. For the same compound, the IC50 with HL-60 was over 1000 µM.
As to `C[S+](C[C@H]1O[C@@H](n2cnc3c(N)ncnc32)[C@H](O)[C@@H]1O)[C@H]1CN[C@H](C(=O)O)C1.O=S(=O)(O)O.O=S(=O)([O-])O` (stereo partly drawn), the Inhibition in the experiment with Trypanosoma brucei worked out at 34%. Moreover, in the experiment with HL-60, the IC50 was over 1000 µM.
